# Measured values taken from the supplement of paper PMC10307832.
# Key:
# Assay in all cases: relative viability (nuclei count vs DMSO), 5 days (fraction); higher = more cells survive
# [1] = tested on: NCI-H1666
# In short: (§1)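 Relative viability is defined as nuclei in treated wells over nuclei in vehicle wells. Duplicate plates were run and medians reported. Lung cancer cell lines in 1536-well plates were dosed by pin tool one day after seeding, with one drug or with a fixed anchor-drug dose plus five library-drug doses (not always all listed) in √10 steps, and nuclei were counted after 5 days.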
# [2] = tested on: BEN
# In short: as §1
# [3] = tested on: NCI-H647
# In short: as §1
# [4] = tested on: 201T
# In short: as §1
# [5] = tested on: NCI-H2087
# In short: as §1
# [6] = tested on: HCC-44
# In short: as §1
# [7] = tested on: COR-L 105
# In short: as §1
# [8] = tested on: NCI-H2342
# In short: as §1
# [9] = tested on: HCC-827
# In short: as §1
# [10] = tested on: NCI-H1975
# In short: as §1
# [11] = tested on: NCI-H2085
# In short: as §1
# [12] = tested on: NCI-H2126
# In short: as §1
# [13] = tested on: SW 1573
# In short: as §1
# [14] = tested on: EPLC-272H
# In short: as §1
# [15] = tested on: LU99A
# In short: as §1
# [16] = tested on: H3255
# In short: as §1
# [17] = tested on: LCLC-97TM1
# In short: as §1
# [18] = tested on: HOP-62
# In short: as §1
# [19] = tested on: LOU-NH91
# In short: as §1
# [20] = tested on: NCI-H1437
# In short: as §1
# [21] = tested on: NCI-H358
# In short: as §1
# [22] = tested on: EKVX
# In short: as §1
# [23] = tested on: PC-3 [JPC-3]
# In short: as §1
# [24] = tested on: NCI-H1395
# In short: as §1
compound,measurement,setting,value
CC(C)Oc1cc(Nc2nc(N[C@@H](C)c3ccc(F)cn3)ncc2Cl)n[nH]1 [AZ23] + Nc1ncn([C@H]2C[C@H](O)[C@@H](CO)O2)c(=O)n1 [Decitabine] (partner 2 µM),relative viability,[1]; first compound 0.01 µM,0.711
same,relative viability,[1]; first compound 0.03162 µM,0.755
same,relative viability,[1]; first compound 0.3162 µM,0.672
same,relative viability,[2]; first compound 0.01 µM,0.736
same,relative viability,[2]; first compound 0.03162 µM,0.829
same,relative viability,[2]; first compound 0.3162 µM,0.667
same,relative viability,[3]; first compound 0.01 µM,0.364
same,relative viability,[3]; first compound 0.03162 µM,0.415
same,relative viability,[3]; first compound 0.3162 µM,0.41
same,relative viability,[4]; first compound 0.01 µM,0.91
same,relative viability,[4]; first compound 0.03162 µM,0.875
same,relative viability,[4]; first compound 0.3162 µM,0.86
same,relative viability,[5]; first compound 0.01 µM,0.303
same,relative viability,[5]; first compound 0.03162 µM,0.265
same,relative viability,[5]; first compound 0.3162 µM,0.237
same,relative viability,[6]; first compound 0.01 µM,1.03
same,relative viability,[6]; first compound 0.03162 µM,0.973
same,relative viability,[6]; first compound 0.3162 µM,0.979
same,relative viability,[7]; first compound 0.01 µM,0.547
same,relative viability,[7]; first compound 0.03162 µM,0.65
same,relative viability,[7]; first compound 0.3162 µM,0.708
same,relative viability,[8]; first compound 0.01 µM,0.716
same,relative viability,[8]; first compound 0.03162 µM,0.778
same,relative viability,[8]; first compound 0.3162 µM,0.649
same,relative viability,[9]; first compound 0.01 µM,0.361
same,relative viability,[9]; first compound 0.03162 µM,0.316
same,relative viability,[9]; first compound 0.3162 µM,0.323
same,relative viability,[10]; first compound 0.01 µM,0.409
same,relative viability,[10]; first compound 0.03162 µM,0.451
same,relative viability,[10]; first compound 0.3162 µM,0.414
same,relative viability,[11]; first compound 0.01 µM,0.565
same,relative viability,[11]; first compound 0.03162 µM,0.539
same,relative viability,[11]; first compound 0.3162 µM,0.5
same,relative viability,[12]; first compound 0.01 µM,0.612
same,relative viability,[12]; first compound 0.03162 µM,0.615
same,relative viability,[12]; first compound 0.3162 µM,0.558
same,relative viability,[13]; first compound 0.01 µM,0.699
same,relative viability,[13]; first compound 0.03162 µM,0.553
same,relative viability,[13]; first compound 0.3162 µM,0.612
same,relative viability,[14]; first compound 0.03162 µM,0.344
same,relative viability,[14]; first compound 0.3162 µM,0.389
same,relative viability,[15]; first compound 0.01 µM,1.03
same,relative viability,[15]; first compound 0.03162 µM,0.85
same,relative viability,[15]; first compound 0.3162 µM,0.829
same,relative viability,[16]; first compound 0.01 µM,0.496
same,relative viability,[16]; first compound 0.03162 µM,0.634
same,relative viability,[16]; first compound 0.3162 µM,0.613
same,relative viability,[17]; first compound 0.01 µM,0.273
same,relative viability,[17]; first compound 0.03162 µM,0.212
same,relative viability,[17]; first compound 0.3162 µM,0.233
same,relative viability,[18]; first compound 0.01 µM,0.282
same,relative viability,[18]; first compound 0.03162 µM,0.21
same,relative viability,[18]; first compound 0.3162 µM,0.195
same,relative viability,[19]; first compound 0.01 µM,0.817
same,relative viability,[19]; first compound 0.03162 µM,0.888
same,relative viability,[19]; first compound 0.3162 µM,0.818
same,relative viability,[20]; first compound 0.01 µM,0.57
same,relative viability,[20]; first compound 0.03162 µM,0.552
same,relative viability,[20]; first compound 0.3162 µM,0.56
same,relative viability,[21]; first compound 0.01 µM,0.261
same,relative viability,[21]; first compound 0.03162 µM,0.214
same,relative viability,[21]; first compound 0.3162 µM,0.179
same,relative viability,[22]; first compound 0.01 µM,0.395
same,relative viability,[22]; first compound 0.03162 µM,0.365
same,relative viability,[22]; first compound 0.3162 µM,0.345
same,relative viability,[23]; first compound 0.01 µM,0.812
same,relative viability,[23]; first compound 0.03162 µM,0.851
same,relative viability,[23]; first compound 0.3162 µM,0.885
same,relative viability,[24]; first compound 0.03162 µM,0.713
same,relative viability,[24]; first compound 0.3162 µM,0.704
C[C@@H]1CN(CC(=O)Nc2ccc3c(c2)Cc2cccc(-c4cc(=O)cc(N5CCOCC5)o4)c2S3)C[C@H](C)O1 + Cc1cc(Nc2cc(N3CCN(C)CC3)nc(Sc3ccc(NC(=O)C4CC4)cc3)n2)n[nH]1 [Tozasertib] (partner 0.1 µM),relative viability,[1]; first compound 0.04 µM,0.637
same,relative viability,[1]; first compound 0.1265 µM,0.689
same,relative viability,[1]; first compound 0.4 µM,0.622
same,relative viability,[1]; first compound 4 µM,0.43
same,relative viability,[2]; first compound 0.04 µM,0.449
same,relative viability,[2]; first compound 0.1265 µM,0.49
same,relative viability,[2]; first compound 0.4 µM,0.447
same,relative viability,[2]; first compound 4 µM,0.478
same,relative viability,[3]; first compound 0.04 µM,0.461
same,relative viability,[3]; first compound 0.1265 µM,0.278
same,relative viability,[3]; first compound 0.4 µM,0.344
same,relative viability,[3]; first compound 4 µM,0.192
same,relative viability,[4]; first compound 0.04 µM,0.93
same,relative viability,[4]; first compound 0.1265 µM,0.882
same,relative viability,[4]; first compound 0.4 µM,0.909
same,relative viability,[4]; first compound 4 µM,0.922
same,relative viability,[5]; first compound 0.04 µM,0.309
same,relative viability,[5]; first compound 0.1265 µM,0.249
same,relative viability,[5]; first compound 0.4 µM,0.333
same,relative viability,[5]; first compound 4 µM,0.228
same,relative viability,[6]; first compound 0.04 µM,0.862
same,relative viability,[6]; first compound 0.1265 µM,0.933
same,relative viability,[6]; first compound 0.4 µM,1.05
same,relative viability,[6]; first compound 4 µM,0.652
same,relative viability,[7]; first compound 0.04 µM,0.321
same,relative viability,[7]; first compound 0.1265 µM,0.332
same,relative viability,[7]; first compound 0.4 µM,0.352
same,relative viability,[7]; first compound 4 µM,0.296
same,relative viability,[8]; first compound 0.04 µM,0.477
same,relative viability,[8]; first compound 0.1265 µM,0.494
same,relative viability,[8]; first compound 0.4 µM,0.559
same,relative viability,[8]; first compound 4 µM,0.384
same,relative viability,[9]; first compound 0.04 µM,0.451
same,relative viability,[9]; first compound 0.1265 µM,0.396
same,relative viability,[9]; first compound 0.4 µM,0.41
same,relative viability,[9]; first compound 4 µM,0.427
same,relative viability,[10]; first compound 0.04 µM,0.781
same,relative viability,[10]; first compound 0.1265 µM,0.675
same,relative viability,[10]; first compound 0.4 µM,0.611
same,relative viability,[10]; first compound 4 µM,0.193
same,relative viability,[11]; first compound 0.04 µM,0.85
same,relative viability,[11]; first compound 0.1265 µM,0.827
same,relative viability,[11]; first compound 0.4 µM,0.739
same,relative viability,[11]; first compound 4 µM,0.551
same,relative viability,[12]; first compound 0.04 µM,0.898
same,relative viability,[12]; first compound 0.1265 µM,0.83
same,relative viability,[12]; first compound 0.4 µM,0.793
same,relative viability,[12]; first compound 4 µM,0.699
same,relative viability,[13]; first compound 0.04 µM,0.224
same,relative viability,[13]; first compound 0.1265 µM,0.18
same,relative viability,[13]; first compound 0.4 µM,0.23
same,relative viability,[13]; first compound 4 µM,0.231
same,relative viability,[14]; first compound 0.04 µM,0.189
same,relative viability,[14]; first compound 0.1265 µM,0.237
same,relative viability,[14]; first compound 0.4 µM,0.256
same,relative viability,[14]; first compound 4 µM,0.243
same,relative viability,[15]; first compound 0.04 µM,0.243
same,relative viability,[15]; first compound 0.1265 µM,0.257
same,relative viability,[15]; first compound 0.4 µM,0.246
same,relative viability,[15]; first compound 4 µM,0.251
same,relative viability,[16]; first compound 0.04 µM,0.694
same,relative viability,[16]; first compound 0.1265 µM,0.606
same,relative viability,[16]; first compound 0.4 µM,0.625
same,relative viability,[16]; first compound 4 µM,0.492
same,relative viability,[17]; first compound 0.04 µM,0.27
same,relative viability,[17]; first compound 0.1265 µM,0.226
same,relative viability,[17]; first compound 0.4 µM,0.214
same,relative viability,[17]; first compound 4 µM,0.207
same,relative viability,[18]; first compound 0.04 µM,0.378
same,relative viability,[18]; first compound 0.1265 µM,0.365
same,relative viability,[18]; first compound 0.4 µM,0.35
same,relative viability,[18]; first compound 4 µM,0.346
same,relative viability,[19]; first compound 0.04 µM,0.605
same,relative viability,[19]; first compound 0.1265 µM,0.649
same,relative viability,[19]; first compound 0.4 µM,0.69
same,relative viability,[19]; first compound 4 µM,0.62
same,relative viability,[20]; first compound 0.04 µM,0.379
same,relative viability,[20]; first compound 0.1265 µM,0.354
same,relative viability,[20]; first compound 0.4 µM,0.395
same,relative viability,[20]; first compound 4 µM,0.365
same,relative viability,[21]; first compound 0.04 µM,0.13
same,relative viability,[21]; first compound 0.1265 µM,0.0927
same,relative viability,[21]; first compound 0.4 µM,0.0941
same,relative viability,[21]; first compound 4 µM,0.114
same,relative viability,[22]; first compound 0.04 µM,0.389
same,relative viability,[22]; first compound 0.1265 µM,0.44
same,relative viability,[22]; first compound 0.4 µM,0.432
same,relative viability,[22]; first compound 4 µM,0.305
same,relative viability,[23]; first compound 0.04 µM,0.883
same,relative viability,[23]; first compound 0.1265 µM,0.862
same,relative viability,[23]; first compound 0.4 µM,0.871
same,relative viability,[23]; first compound 4 µM,0.74
same,relative viability,[24]; first compound 0.04 µM,0.696
same,relative viability,[24]; first compound 0.1265 µM,0.729
same,relative viability,[24]; first compound 0.4 µM,0.665
same,relative viability,[24]; first compound 4 µM,0.721
